Assay results: PubChem BioAssay (NCI)
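The compound was tested at five concentrations on cells cultured in 96-well plates, with a 48-hour exposure period. Definition used: TGI = concentration required for complete inhibition of growth.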

Assays:
Assay in all cases: NCI-60 cell line screen, 48 h
SF-295 CNS = system: SF-295 CNS
T-47D breast = system: T-47D breast
MCF7 breast = system: MCF7 breast
U251 CNS = system: U251 CNS
HCT-15 colon = system: HCT-15 colon
DU-145 prostate = system: DU-145 prostate
SK-OV-3 ovarian = system: SK-OV-3 ovarian
BT-549 breast = system: BT-549 breast
HCT-116 colon = system: HCT-116 colon
LOX IMVI melanoma = system: LOX IMVI melanoma
EKVX NSCLC = system: EKVX NSCLC
MALME-3M melanoma = system: MALME-3M melanoma
UACC-62 melanoma = system: UACC-62 melanoma
A549 NSCLC = system: A549 NSCLC
NCI-H226 lung = system: NCI-H226 lung
PC-3 prostate = system: PC-3 prostate
SF-539 CNS = system: SF-539 CNS
SK-MEL-28 melanoma = system: SK-MEL-28 melanoma
MDA-N = system: MDA-N
M14 melanoma = system: M14 melanoma
SK-MEL-2 melanoma = system: SK-MEL-2 melanoma
NCI-H522 lung = system: NCI-H522 lung
OVCAR-3 ovarian = system: OVCAR-3 ovarian
TK-10 renal = system: TK-10 renal
OVCAR-4 ovarian = system: OVCAR-4 ovarian
HS 578T breast = system: HS 578T breast
SF-268 CNS = system: SF-268 CNS
HOP-62 NSCLC = system: HOP-62 NSCLC
786-0 renal = system: 786-0 renal
MDA-MB-435 = system: MDA-MB-435
KM12 colon = system: KM12 colon
SK-MEL-5 melanoma = system: SK-MEL-5 melanoma
OVCAR-8 ovarian = system: OVCAR-8 ovarian
MOLT-4 leukemia = system: MOLT-4 leukemia
UACC-257 melanoma = system: UACC-257 melanoma
SNB-19 CNS = system: SNB-19 CNS
CCRF-CEM leukemia = system: CCRF-CEM leukemia
CAKI-1 renal = system: CAKI-1 renal
MDA-MB-231 breast = system: MDA-MB-231 breast
NCI/ADR-RES ovarian = system: NCI/ADR-RES ovarian
NCI-H460 lung = system: NCI-H460 lung
OVCAR-5 ovarian = system: OVCAR-5 ovarian
NCI-H23 lung = system: NCI-H23 lung
A498 renal = system: A498 renal
SW-620 colon = system: SW-620 colon
HT29 colon = system: HT29 colon
SN12C renal = system: SN12C renal
K-562 leukemia = system: K-562 leukemia
UO-31 renal = system: UO-31 renal
IGROV1 ovarian = system: IGROV1 ovarian
HOP-92 NSCLC = system: HOP-92 NSCLC
COLO 205 colon = system: COLO 205 colon
RXF 393 renal = system: RXF 393 renal
SNB-75 CNS = system: SNB-75 CNS
RPMI-8226 leukemia = system: RPMI-8226 leukemia
HL-60(TB) leukemia = system: HL-60(TB) leukemia
ACHN renal = system: ACHN renal
HCC-2998 colon = system: HCC-2998 colon

O=C1c2cccnc2-c2nccc3c2c1nc1ccccc13
TGI (SF-295 CNS): 194 nM | TGI (T-47D breast): 2080 nM | TGI (MCF7 breast): 85.8 nM | TGI (U251 CNS): 703 nM | TGI (HCT-15 colon): 202 nM | TGI (DU-145 prostate): 962 nM | TGI (SK-OV-3 ovarian): 1190 nM | TGI (BT-549 breast): 618 nM | TGI (HCT-116 colon): 180 nM | TGI (LOX IMVI melanoma): 207 nM | TGI (EKVX NSCLC): 3210 nM | TGI (MALME-3M melanoma): 603 nM | TGI (UACC-62 melanoma): 541 nM | TGI (A549 NSCLC): 739 nM | TGI (NCI-H226 lung): 738 nM | TGI (PC-3 prostate): 1580 nM | TGI (SF-539 CNS): 544 nM | TGI (SK-MEL-28 melanoma): 1470 nM | TGI (MDA-N): 359 nM | TGI (M14 melanoma): 269 nM | TGI (SK-MEL-2 melanoma): 525 nM | TGI (NCI-H522 lung): 281 nM | TGI (OVCAR-3 ovarian): 98.7 nM | TGI (TK-10 renal): 2840 nM | TGI (OVCAR-4 ovarian): 3560 nM | TGI (HS 578T breast): 2260 nM | TGI (SF-268 CNS): 834 nM | TGI (HOP-62 NSCLC): 514 nM | TGI (786-0 renal): 2210 nM | TGI (MDA-MB-435): 444 nM | TGI (KM12 colon): 1030 nM | TGI (SK-MEL-5 melanoma): 168 nM | TGI (OVCAR-8 ovarian): 1610 nM | TGI (MOLT-4 leukemia): 3200 nM | TGI (UACC-257 melanoma): 1060 nM | TGI (SNB-19 CNS): 1280 nM | TGI (CCRF-CEM leukemia): 10200 nM | TGI (CAKI-1 renal): 467 nM | TGI (MDA-MB-231 breast): 674 nM | TGI (NCI/ADR-RES ovarian): 673 nM | TGI (NCI-H460 lung): 606 nM | TGI (OVCAR-5 ovarian): 1650 nM | TGI (NCI-H23 lung): 518 nM | TGI (A498 renal): 1030 nM | TGI (SW-620 colon): 237 nM | TGI (HT29 colon): 2500 nM | TGI (SN12C renal): 1030 nM | TGI (K-562 leukemia): 667 nM | TGI (UO-31 renal): 634 nM | TGI (IGROV1 ovarian): 1330 nM | TGI (HOP-92 NSCLC): 2540 nM | TGI (COLO 205 colon): 4770 nM | TGI (RXF 393 renal): 459 nM | TGI (SNB-75 CNS): 1760 nM | TGI (RPMI-8226 leukemia): 1170 nM

O=C(NC1C/C(=N/O)c2c(Br)sc(Br)c21)C(F)(F)F (stereo not given)
TGI (SF-295 CNS): > 100000 nM | TGI (T-47D breast): > 100000 nM | TGI (MCF7 breast): > 100000 nM | TGI (U251 CNS): 39200 nM | TGI (HCT-15 colon): > 100000 nM | TGI (DU-145 prostate): > 100000 nM | TGI (SK-OV-3 ovarian): > 100000 nM | TGI (BT-549 breast): > 100000 nM | TGI (HCT-116 colon): 30900 nM | TGI (LOX IMVI melanoma): > 100000 nM | TGI (EKVX NSCLC): > 100000 nM | TGI (MALME-3M melanoma): > 100000 nM | TGI (UACC-62 melanoma): > 100000 nM | TGI (A549 NSCLC): 96900 nM | TGI (NCI-H226 lung): 97700 nM | TGI (HL-60(TB) leukemia): > 100000 nM | TGI (PC-3 prostate): 45600 nM | TGI (SF-539 CNS): 38900 nM | TGI (MDA-N): > 100000 nM | TGI (M14 melanoma): > 100000 nM | TGI (SK-MEL-2 melanoma): 90100 nM | TGI (NCI-H522 lung): > 100000 nM | TGI (OVCAR-3 ovarian): > 100000 nM | TGI (TK-10 renal): > 100000 nM | TGI (OVCAR-4 ovarian): 43700 nM | TGI (HS 578T breast): 36300 nM | TGI (SF-268 CNS): > 100000 nM | TGI (786-0 renal): 40400 nM | TGI (MDA-MB-435): > 100000 nM | TGI (KM12 colon): > 100000 nM | TGI (SK-MEL-5 melanoma): 54400 nM | TGI (OVCAR-8 ovarian): 63200 nM | TGI (ACHN renal): > 100000 nM | TGI (MOLT-4 leukemia): > 100000 nM | TGI (UACC-257 melanoma): 72300 nM | TGI (SNB-19 CNS): > 100000 nM | TGI (CCRF-CEM leukemia): 48500 nM | TGI (CAKI-1 renal): 58000 nM | TGI (MDA-MB-231 breast): 30900 nM | TGI (NCI/ADR-RES ovarian): 88600 nM | TGI (NCI-H460 lung): 97200 nM | TGI (OVCAR-5 ovarian): > 100000 nM | TGI (NCI-H23 lung): > 100000 nM | TGI (A498 renal): 57800 nM | TGI (SW-620 colon): > 100000 nM | TGI (HT29 colon): > 100000 nM | TGI (SN12C renal): 56100 nM | TGI (K-562 leukemia): 38400 nM | TGI (UO-31 renal): 98500 nM | TGI (IGROV1 ovarian): > 100000 nM | TGI (HOP-92 NSCLC): 32900 nM | TGI (COLO 205 colon): > 100000 nM | TGI (RXF 393 renal): > 100000 nM | TGI (SNB-75 CNS): > 100000 nM | TGI (HCC-2998 colon): > 100000 nM
